In assay [1] the target is T1, mTOR (Homo sapiens, UniProt P42345).
T1 construct: endogenous in cells; host or cells: Jurkat (ATCC TIB-152, clone E6-1) and Ramos (ATCC CRL-1596), 1:1 lysate mix
Put plainly: mTOR kinobeads assay (competition binding in cell lysate, dot blot detection). Particulars: 1:1 mix of Jurkat and Ramos cell lysates, read-out: Inhibition values (IC50 in μM) as determined in the kinobeads assay, mTor. The protocol: Determination of the Effect of the Compounds According to the Invention on mTOR
(§1) The compounds of the present invention as described were tested in the mTOR kinobeads assay as described below. Briefly, test compounds (at various concentrations) and the affinity matrix (1:1 mixture of beads with immobilized phenylthiazole ligand 1 and beads with immobilized phenylmorpholin-chromen ligand; WO 2009/098021) were added to cell lysate aliquots and allowed to bind to the proteins in the lysate sample. After the incubation time the beads with captured proteins were separated from the lysate. Bound proteins were then eluted and the presence of mTOR, PI3Kα, PI3Kβ, PI3Kγ, PI3Kδ and DNA-dependent protein kinase (DNA-PK) was detected and quantified using a specific antibody in a dot blot procedure and the Odyssey infrared detection system. Dose response curves for individual kinases were generated and IC50 values calculated. Kinobeads assays for PI3 kinases (WO-A 2008/015013) and for kinase selectivity profiling (WO 2009/098021) have been previously described.
(§2) Washing of Affinity Matrix
(§3) The affinity matrix was washed two times with 15 ml of 1×DP buffer containing 0.2% NP40 (IGEPAL® CA-630, Sigma, #13021) and then resupended in 5.5 ml of 1×DP buffer containing 0.2% NP40 (10% beads slurry).
(§4) 5×DP buffer: 250 mM Tris-HCl pH 7.4, 25% Glycerol, 7.5 mM MgCl2, 750 mM NaCl, 5 mM Na3VO4, filter the 5×-lysis buffer through 0.22 μm filter and store in aliquots at −80° C. The 5×DP buffer is diluted to 1×DP buffer containing 1 mM DTT and 25 mM NaF.
(§5) Preparation of Test Compounds
(§6) Stock solutions of test compounds were prepared in DMSO. In a 96 well plate 30 μl solution of diluted test compounds at 5 mM in DMSO were prepared. Starting with this solution a 1:3 dilution series (9 steps) was prepared. For control experiments (no test compound) a buffer containing 2% DMSO was used. Compound Pi-103 (Calbiochem catalogue number 528100) served as a positive control.
(§7) Cell Culture and Preparation of Cell Lysates
(§8) Jurkat cells (ATCC catalogue number TIB-152 Jurkat, clone E6-1) and Ramos cells (ATCC number CRL-1596) were grown in 1 litre Spinner flasks (Integra Biosciences, #182101) in suspension in RPMI 1640 medium (Invitrogen, #21875-034) supplemented with 10% Fetal Bovine Serum (Invitrogen) at a density between 0.15×10^6 and 1.2×10^6 cells/ml. Cells were harvested by centrifugation, washed once with 1×PBS buffer (Invitrogen, #14190-094) and cell pellets were frozen in liquid nitrogen and subsequently stored at −80° C.
(§9) Cells were homogenized in a Potter S homogenizer in lysis buffer: 50 mM Tris-HCl, 0.8% NP40, 5% glycerol, 150 mM NaCl, 1.5 mM MgCl2, 25 mM NaF, 1 mM sodium vanadate, 1 mM DTT, pH 7.5. One complete EDTA-free tablet (protease inhibitor cocktail, Roche Diagnostics, 1873580) per 25 ml buffer was added. The material was dounced 10 times using a mechanized POTTER S, transferred to 50 ml falcon tubes, incubated for 30 minutes on ice and spun down for 10 min at 20,000 g at 4° C. (10,000 rpm in Sorvall SLA600, precooled). The supernatant was transferred to an ultracentrifuge (UZ)-polycarbonate tube (Beckmann, 355654) and spun for 1 hour at 100.000 g at 4° C. (33.500 rpm in Ti50.2, precooled). The supernatant was transferred again to a fresh 50 ml falcon tube, the protein concentration was determined by a Bradford assay (BioRad) and samples containing 50 mg of protein per aliquot were prepared. The samples were immediately used for experiments or frozen in liquid nitrogen and stored frozen at −80° C.
Cell lysate (approximately 50 mg protein per plate) was thawed in a water bath at room temperature and then kept on ice. To the thawed cell lysate 1×DP 0.8% NP40 buffer containing protease inhibitors (1 tablet for 25 ml buffer; EDTA-free protease inhibitor cocktail; Roche Diagnostics 1873580) was added in order to reach a final protein concentration of 5 mg/ml total protein. For the kinobeads experiment a 1:1 mix of Jurkat and Ramos cell lysates was used. […]

Assay [2] deals with T2, PI3Kβ (Homo sapiens, UniProt P42338).
T2 construct: endogenous in cells; host or cells: Jurkat (ATCC TIB-152, clone E6-1) and Ramos (ATCC CRL-1596), 1:1 lysate mix
T2 sequence (P42338 whole entry): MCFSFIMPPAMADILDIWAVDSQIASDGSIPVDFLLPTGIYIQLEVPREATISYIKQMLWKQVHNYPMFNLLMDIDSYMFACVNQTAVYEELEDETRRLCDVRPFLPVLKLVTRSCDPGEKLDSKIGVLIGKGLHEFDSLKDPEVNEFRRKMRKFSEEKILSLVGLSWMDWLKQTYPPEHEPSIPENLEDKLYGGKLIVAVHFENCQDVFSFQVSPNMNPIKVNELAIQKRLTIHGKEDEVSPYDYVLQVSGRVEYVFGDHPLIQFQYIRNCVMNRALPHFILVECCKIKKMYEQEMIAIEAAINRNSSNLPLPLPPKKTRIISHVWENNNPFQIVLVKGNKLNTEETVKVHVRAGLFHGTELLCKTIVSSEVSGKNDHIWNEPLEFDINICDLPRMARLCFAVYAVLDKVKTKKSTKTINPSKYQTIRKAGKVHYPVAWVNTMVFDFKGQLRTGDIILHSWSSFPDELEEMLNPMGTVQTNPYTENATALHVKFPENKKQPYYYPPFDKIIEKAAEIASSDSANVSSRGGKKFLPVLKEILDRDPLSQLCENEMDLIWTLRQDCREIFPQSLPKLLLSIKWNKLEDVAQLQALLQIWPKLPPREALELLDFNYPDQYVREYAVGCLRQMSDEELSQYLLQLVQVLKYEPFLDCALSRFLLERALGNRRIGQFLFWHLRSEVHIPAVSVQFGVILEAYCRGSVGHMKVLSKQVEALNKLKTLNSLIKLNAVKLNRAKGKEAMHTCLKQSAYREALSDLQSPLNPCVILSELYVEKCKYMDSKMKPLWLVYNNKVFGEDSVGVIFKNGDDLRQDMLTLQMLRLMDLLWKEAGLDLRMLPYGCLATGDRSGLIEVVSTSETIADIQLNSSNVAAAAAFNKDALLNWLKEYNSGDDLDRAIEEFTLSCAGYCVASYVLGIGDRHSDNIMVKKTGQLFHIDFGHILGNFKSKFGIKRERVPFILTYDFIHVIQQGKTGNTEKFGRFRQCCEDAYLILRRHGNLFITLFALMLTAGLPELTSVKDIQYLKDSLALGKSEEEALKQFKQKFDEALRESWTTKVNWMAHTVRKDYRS
T2 sequence (P27986 whole entry partner): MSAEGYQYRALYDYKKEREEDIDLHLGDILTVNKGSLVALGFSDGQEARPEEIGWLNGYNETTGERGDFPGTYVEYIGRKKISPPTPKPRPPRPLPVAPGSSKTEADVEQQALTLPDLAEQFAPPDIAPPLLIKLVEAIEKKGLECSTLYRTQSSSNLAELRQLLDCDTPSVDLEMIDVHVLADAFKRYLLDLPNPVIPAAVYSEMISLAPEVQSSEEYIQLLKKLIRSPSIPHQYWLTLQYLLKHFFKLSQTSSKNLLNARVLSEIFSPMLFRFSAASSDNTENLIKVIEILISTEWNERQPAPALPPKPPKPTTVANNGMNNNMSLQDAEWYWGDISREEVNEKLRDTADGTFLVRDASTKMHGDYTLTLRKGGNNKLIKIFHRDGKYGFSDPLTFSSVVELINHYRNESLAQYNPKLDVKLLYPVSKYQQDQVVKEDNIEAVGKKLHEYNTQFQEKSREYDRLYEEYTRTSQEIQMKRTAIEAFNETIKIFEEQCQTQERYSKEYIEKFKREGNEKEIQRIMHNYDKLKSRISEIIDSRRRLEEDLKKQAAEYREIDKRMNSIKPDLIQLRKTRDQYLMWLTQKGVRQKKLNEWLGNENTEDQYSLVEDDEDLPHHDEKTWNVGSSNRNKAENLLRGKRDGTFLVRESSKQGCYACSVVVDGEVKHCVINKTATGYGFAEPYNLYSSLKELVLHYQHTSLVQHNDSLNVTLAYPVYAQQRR
In words: kinobeads assay, PI3Kβ. It is filed as binding. Particulars: 1:1 mix of Jurkat and Ramos cell lysates, read-out: Inhibition values (IC50 in μM) as determined in the kinobeads assay, PI3Kβ. On the procedure:
as §1, §2, §3, §4, §5, §6, §7, §8, §9
(§10) Cell lysate (approximately 50 mg protein per plate) was thawed in a water bath at room temperature and then kept on ice. To the thawed cell lysate 1×DP 0.8% NP40 buffer containing protease inhibitors (1 tablet for 25 ml buffer; EDTA-free protease inhibitor cocktail; Roche Diagnostics 1873580) was added in order to reach a final protein concentration of 5 mg/ml total protein. For the kinobeads experiment a 1:1 mix of Jurkat and Ramos cell lysates was used. The diluted cell lysate was stored on ice. […]

Assay [3] has as its target T3, PI3Kγ (Homo sapiens, UniProt P48736).
T3 construct: endogenous in cells; host or cells: Jurkat (ATCC TIB-152, clone E6-1) and Ramos (ATCC CRL-1596), 1:1 lysate mix
In words: kinobeads assay, PI3Kγ. The format is binding. Particulars: 1:1 mix of Jurkat and Ramos cell lysates, read-out: Inhibition values (IC50 in μM) as determined in the kinobeads assay, PI3Kγ. The protocol: as §1, §2, §3, §4, §5, §6, §7, §8, §9, §10

Assay [4] has as its target T4, PI3Kα (Homo sapiens, UniProt P42336).
T4 construct: endogenous in cells; host or cells: Jurkat (ATCC TIB-152, clone E6-1) and Ramos (ATCC CRL-1596), 1:1 lysate mix
Put plainly: kinobeads assay, PI3Kα. The format is binding. Particulars: 1:1 mix of Jurkat and Ramos cell lysates, read-out: Inhibition values (IC50 in μM) as determined in the kinobeads assay, PI3Kα. On the procedure:
as §1, §2, §3, §4, §5, §6, §7, §8, §9, §10

In assay [5] the target is T5, DNA-dependent protein kinase (DNA-PK) (Homo sapiens, UniProt P78527).
T5 construct: endogenous in cells; host or cells: Jurkat (ATCC TIB-152, clone E6-1) and Ramos (ATCC CRL-1596), 1:1 lysate mix
In words: kinobeads assay, DNA-PK. The format is binding. The note with it: 1:1 mix of Jurkat and Ramos cell lysates, read-out: Inhibition values (IC50 in μM) as determined in the kinobeads assay, DNA-PK. On the procedure: as §1, §2, §3, §4, §5, §6, §7, §8, §9, §10

For assay [6], the target named is T6, PI3Kδ (Homo sapiens, UniProt O00329).
T6 construct: endogenous in cells; host or cells: Jurkat (ATCC TIB-152, clone E6-1) and Ramos (ATCC CRL-1596), 1:1 lysate mix
T6 sequence (O00329 whole entry): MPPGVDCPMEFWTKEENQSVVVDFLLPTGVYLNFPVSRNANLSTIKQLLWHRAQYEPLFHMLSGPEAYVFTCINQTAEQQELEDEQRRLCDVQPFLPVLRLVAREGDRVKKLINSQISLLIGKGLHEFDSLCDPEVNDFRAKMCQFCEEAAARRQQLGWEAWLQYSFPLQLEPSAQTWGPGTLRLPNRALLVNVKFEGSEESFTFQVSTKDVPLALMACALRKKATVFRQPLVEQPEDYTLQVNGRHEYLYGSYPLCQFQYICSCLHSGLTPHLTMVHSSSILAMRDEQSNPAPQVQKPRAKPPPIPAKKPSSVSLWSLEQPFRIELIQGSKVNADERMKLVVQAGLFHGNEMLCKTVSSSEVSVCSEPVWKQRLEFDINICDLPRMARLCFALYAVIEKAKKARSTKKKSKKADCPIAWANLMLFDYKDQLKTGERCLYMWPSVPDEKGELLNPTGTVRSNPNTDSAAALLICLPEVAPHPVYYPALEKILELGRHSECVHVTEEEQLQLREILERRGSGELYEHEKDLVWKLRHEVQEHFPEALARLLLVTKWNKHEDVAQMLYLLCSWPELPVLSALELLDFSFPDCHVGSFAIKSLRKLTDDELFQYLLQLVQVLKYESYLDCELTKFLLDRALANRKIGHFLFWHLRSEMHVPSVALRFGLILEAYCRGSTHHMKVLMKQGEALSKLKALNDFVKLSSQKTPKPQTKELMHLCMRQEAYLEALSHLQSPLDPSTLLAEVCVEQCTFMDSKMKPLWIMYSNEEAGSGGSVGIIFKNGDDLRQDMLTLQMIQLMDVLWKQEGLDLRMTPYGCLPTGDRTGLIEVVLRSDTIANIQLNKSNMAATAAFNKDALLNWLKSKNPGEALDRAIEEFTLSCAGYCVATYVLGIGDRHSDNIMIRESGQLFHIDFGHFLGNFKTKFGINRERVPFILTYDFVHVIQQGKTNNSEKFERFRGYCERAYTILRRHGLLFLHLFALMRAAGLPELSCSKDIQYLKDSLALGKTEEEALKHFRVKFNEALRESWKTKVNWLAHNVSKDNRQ
T6 sequence (P27986 whole entry partner): as the sequence (P27986 whole entry partner) above
Put plainly: kinobeads assay, PI3Kδ. The format is binding. The note with it: 1:1 mix of Jurkat and Ramos cell lysates, read-out: Inhibition values (IC50 in μM) as determined in the kinobeads assay, PI3Kδ. The protocol: as §1, §2, §3, §4, §5, §6, §7, §8, §9, §10

Our source for the IC50 values is US20140163023A1, “DIHYDROPYRROLO PYRIMIDINE DERIVATIVES AS MTOR INHIBITORS” (Cellzome Limited, priority 2011, published 2014).

In general, IC50 refers to the midpoint of a concentration-inhibition curve.

T3 sequence (P48736 whole entry): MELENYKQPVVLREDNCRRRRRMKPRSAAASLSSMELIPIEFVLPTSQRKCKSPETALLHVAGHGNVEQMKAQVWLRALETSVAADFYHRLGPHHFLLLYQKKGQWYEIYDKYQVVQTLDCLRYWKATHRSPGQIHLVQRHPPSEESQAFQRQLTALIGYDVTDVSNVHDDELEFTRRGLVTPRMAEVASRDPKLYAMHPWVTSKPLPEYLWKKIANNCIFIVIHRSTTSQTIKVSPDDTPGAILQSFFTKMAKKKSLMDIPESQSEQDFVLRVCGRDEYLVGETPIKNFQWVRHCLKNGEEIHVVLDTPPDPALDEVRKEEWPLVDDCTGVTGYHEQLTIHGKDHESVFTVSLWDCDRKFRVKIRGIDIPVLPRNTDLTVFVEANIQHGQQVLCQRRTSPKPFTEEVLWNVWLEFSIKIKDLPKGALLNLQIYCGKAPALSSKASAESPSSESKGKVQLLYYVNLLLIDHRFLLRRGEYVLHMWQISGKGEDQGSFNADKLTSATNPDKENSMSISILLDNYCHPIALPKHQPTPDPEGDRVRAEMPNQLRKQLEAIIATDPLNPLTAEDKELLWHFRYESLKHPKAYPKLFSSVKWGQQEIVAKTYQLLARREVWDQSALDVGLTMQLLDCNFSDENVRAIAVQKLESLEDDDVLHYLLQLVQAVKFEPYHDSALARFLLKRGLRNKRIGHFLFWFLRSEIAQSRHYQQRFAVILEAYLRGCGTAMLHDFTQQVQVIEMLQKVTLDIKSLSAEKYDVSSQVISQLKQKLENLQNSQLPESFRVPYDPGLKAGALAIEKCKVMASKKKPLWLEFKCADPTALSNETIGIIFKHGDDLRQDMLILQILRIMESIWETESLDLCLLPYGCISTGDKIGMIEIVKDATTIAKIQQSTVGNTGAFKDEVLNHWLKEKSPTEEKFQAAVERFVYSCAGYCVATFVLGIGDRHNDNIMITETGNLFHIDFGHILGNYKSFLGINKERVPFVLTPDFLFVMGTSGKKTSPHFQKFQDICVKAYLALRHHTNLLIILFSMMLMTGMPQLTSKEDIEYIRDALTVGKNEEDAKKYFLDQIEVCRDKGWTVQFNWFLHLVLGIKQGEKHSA
T4 sequence (P42336 whole entry): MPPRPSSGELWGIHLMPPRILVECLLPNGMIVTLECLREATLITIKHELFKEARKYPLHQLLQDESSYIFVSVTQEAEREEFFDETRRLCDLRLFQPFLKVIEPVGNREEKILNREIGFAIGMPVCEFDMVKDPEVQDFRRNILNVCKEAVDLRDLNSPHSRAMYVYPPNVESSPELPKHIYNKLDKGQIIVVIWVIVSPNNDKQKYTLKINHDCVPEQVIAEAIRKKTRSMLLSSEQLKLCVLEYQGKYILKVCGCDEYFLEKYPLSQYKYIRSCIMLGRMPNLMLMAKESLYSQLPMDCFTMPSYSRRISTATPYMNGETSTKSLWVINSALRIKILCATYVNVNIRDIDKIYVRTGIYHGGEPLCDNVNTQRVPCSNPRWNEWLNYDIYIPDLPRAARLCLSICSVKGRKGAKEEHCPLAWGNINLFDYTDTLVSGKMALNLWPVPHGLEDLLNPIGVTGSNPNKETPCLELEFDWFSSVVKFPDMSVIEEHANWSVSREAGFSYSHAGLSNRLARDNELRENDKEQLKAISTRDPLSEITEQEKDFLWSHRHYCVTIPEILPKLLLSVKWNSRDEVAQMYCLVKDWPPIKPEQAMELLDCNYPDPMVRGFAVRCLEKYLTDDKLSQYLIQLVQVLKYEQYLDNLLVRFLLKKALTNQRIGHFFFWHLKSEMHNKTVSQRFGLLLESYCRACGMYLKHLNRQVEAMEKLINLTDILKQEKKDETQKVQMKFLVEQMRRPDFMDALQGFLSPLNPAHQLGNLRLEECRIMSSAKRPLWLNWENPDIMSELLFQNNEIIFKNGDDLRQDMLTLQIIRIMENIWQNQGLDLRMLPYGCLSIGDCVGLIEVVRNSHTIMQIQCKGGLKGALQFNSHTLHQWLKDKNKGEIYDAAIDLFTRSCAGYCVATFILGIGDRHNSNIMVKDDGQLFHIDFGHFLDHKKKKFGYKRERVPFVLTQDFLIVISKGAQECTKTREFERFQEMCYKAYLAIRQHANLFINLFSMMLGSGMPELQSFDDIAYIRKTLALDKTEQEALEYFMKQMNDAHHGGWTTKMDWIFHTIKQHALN
T4 sequence (P27986 whole entry partner): as the sequence (P27986 whole entry partner) above

For `C[C@H]1COCCN1c1nc2c(c(-c3ccc(NC(=O)Nc4ccncc4)cc3)n1)CNC2` [Example 24, (S)-1-(4-(2-(3-methylmorpholino)-6,7-dihydro-5H-pyrrolo[3,4-d]pyrimidin-4-yl)phenyl)-3-(pyridin-4-yl)urea], the IC50 in assay [1] is 1 to 10 µM; in assay [2], 10 to 100 µM; in assay [3], 10 to 100 µM; in assay [4], 10 to 100 µM; in assay [5], greater than 100 µM; in assay [6], 10 to 100 µM.

As for `C[C@H]1COCCN1c1nc2c(c(-c3ccc(NC(=O)Nc4cccc(O)n4)cc3)n1)CNC2` [Example 25, (S)-1-(6-hydroxypyridin-2-yl)-3-(4-(2-(3-methylmorpholino)-6,7-dihydro-5H-pyrrolo[3,4-d]pyrimidin-4-yl)phenyl)urea], the IC50 in assay [1] was 0.1 to 1 µM; in assay [2], 1 to 10 µM; in assay [3] it was 1 to 10 µM; in assay [4] it was 1 to 10 µM; in assay [5] it was greater than 100 µM; in assay [6], 10 to 100 µM.

Regarding `C[C@@H]1COCCN1c1nc2c(c(-c3ccc(NC(=O)NC4CC4)cc3)n1)CNC2` [Example 26, (R)-1-cyclopropyl-3-(4-(2-(3-methylmorpholino)-6,7-dihydro-5H-pyrrolo[3,4-d]pyrimidin-4-yl)phenyl)urea], the IC50 was 0.1 to 1 µM in assay [1]; 10 to 100 µM in assay [2]; greater than 100 µM in assay [3]; greater than 100 µM in assay [4]; greater than 100 µM in assay [5]; 10 to 100 µM in assay [6].

With `COCC(=O)N1Cc2nc(N3CCOC[C@@H]3C)nc(-c3ccc(NC(=O)NC4CC4)cc3)c2C1` [Example 27, (S)-1-cyclopropyl-3-(4-(6-(2-methoxyacetyl)-2-(3-methylmorpholino)-6,7-dihydro-5H-pyrrolo[3,4-d]pyrimidin-4-yl)phenyl)urea], the IC50 in assay [1] is 1 to 10 µM; in assay [2], 10 to 100 µM; in assay [3], greater than 100 µM; in assay [4], 10 to 100 µM; in assay [5] it was greater than 100 µM; in assay [6], 10 to 100 µM.

As to `C[C@H]1COCCN1c1nc2c(c(-c3ccc(NC(=O)NC4CC4)cc3)n1)CN(C(=O)CN)C2` [Example 28, (S)-1-(4-(6-(2-aminoacetyl)-2-(3-methylmorpholino)-6,7-dihydro-5H-pyrrolo[3,4-d]pyrimidin-4-yl)phenyl)-3-cyclopropylurea], the IC50 in assay [1] is 1 to 10 µM; in assay [2] it was 10 to 100 µM; in assay [3], 10 to 100 µM; in assay [4] it was 10 to 100 µM; in assay [5], greater than 100 µM; in assay [6], 10 to 100 µM.

With `C[C@H]1COCCN1c1nc2c(c(-c3ccc(NC(=O)NC4CC4)cc3)n1)CN(C(=O)CCN)C2` [Example 29, (S)-1-(4-(6-(3-aminopropanoyl)-2-(3-methylmorpholino)-6,7-dihydro-5H-pyrrolo[3,4-d]pyrimidin-4-yl)phenyl)-3-cyclopropylurea], the 50% inhibitory concentration (IC50) in assay [1] is 1 to 10 µM; in assay [2], 10 to 100 µM; in assay [3], 10 to 100 µM; in assay [4], 10 to 100 µM; in assay [5] it was greater than 100 µM; in assay [6], 10 to 100 µM.

As for `C[C@H]1COCCN1c1nc2c(c(-c3ccc(NC(=O)NC4CC4)cc3)n1)CN(C(=O)CCCN)C2` [Example 30, (S)-1-(4-(6-(4-aminobutanoyl)-2-(3-methylmorpholino)-6,7-dihydro-5H-pyrrolo[3,4-d]pyrimidin-4-yl)phenyl)-3-cyclopropylurea], the IC50 was 1 to 10 µM in assay [1]; 10 to 100 µM in assay [2]; greater than 100 µM in assay [3]; 10 to 100 µM in assay [4]; greater than 100 µM in assay [5]; 10 to 100 µM in assay [6].

With `COCCC(=O)N1Cc2nc(N3CCOC[C@@H]3C)nc(-c3ccc(NC(=O)NC4CC4)cc3)c2C1` [Example 31, (S)-1-cyclopropyl-3-(4-(6-(3-methoxypropanoyl)-2-(3-methylmorpholino)-6,7-dihydro-5H-pyrrolo[3,4-d]pyrimidin-4-yl)phenyl)urea], the IC50 in assay [1] is 0.1 to 1 µM; in assay [2] it was 10 to 100 µM; in assay [3], greater than 100 µM; in assay [4], greater than 100 µM; in assay [5] it was greater than 100 µM; in assay [6] it was 10 to 100 µM.

With `C[C@H]1COCCN1c1nc2c(c(-c3ccc(NC(=O)NC4CC4)cc3)n1)CN(C(=O)CCCN(C)C)C2` [Example 32, (S)-1-cyclopropyl-3-(4-(6-(4-(dimethylamino)butanoyl)-2-(3-methylmorpholino)-6,7-dihydro-5H-pyrrolo[3,4-d]pyrimidin-4-yl)phenyl)urea], the IC50 in assay [1] was 1 to 10 µM; in assay [2], 1 to 10 µM; in assay [3] it was 10 to 100 µM; in assay [4], greater than 100 µM; in assay [5] it was 10 to 100 µM; in assay [6] it was 10 to 100 µM.

On to `C[C@H]1COCCN1c1nc2c(c(-c3ccc(NC(=O)NC4CC4)cc3)n1)CN(C(=O)C1CCCO1)C2` (stereo partly drawn) [Example 33, 1-cyclopropyl-3-(4-(2-((S)-3-methylmorpholino)-6-(tetrahydrofuran-2-carbonyl)-6,7-dihydro-5H-pyrrolo[3,4-d]pyrimidin-4-yl)phenyl)urea], for which the IC50 in assay [1] is 1 to 10 µM; in assay [2] it was 10 to 100 µM; in assay [3] it was greater than 100 µM; in assay [4], greater than 100 µM; in assay [5], greater than 100 µM; in assay [6] it was 10 to 100 µM.

Turning to `CC(C)N1Cc2nc(N3CCOC[C@@H]3C)nc(-c3ccc(NC(=O)NCCO)cc3)c2C1` [Example 34, (S)-1-(2-hydroxyethyl)-3-(4-(6-isopropyl-2-(3-methylmorpholino)-6,7-dihydro-5H-pyrrolo[3,4-d]pyrimidin-4-yl)phenyl)urea 2,2,2-trifluoroacetate], the IC50 is 0.1 to 1 µM in assay [1]; 10 to 100 µM in assay [2]; 10 to 100 µM in assay [3]; 10 to 100 µM in assay [4]; greater than 100 µM in assay [5]; 10 to 100 µM in assay [6].
